Laboratory results as given in article PMC7583350 (Journal of medicinal chemistry, 2018).
Entries after “also recorded” stand apart in the source; their conditions may differ.

Legend:
MIA PaCa-2 cells = experiment: Co-treatment with gemcitabine, MIA PaCa-2 pancreatic cancer cells; type: cell-based, human; settings: GEM-sensitive, 15 μM IAP inhibitor, 24 hrs co-treatment
BxPC3 cells = experiment: Co-treatment with gemcitabine, BxPC3 pancreatic cancer cells; type: cell-based, human; settings: 15 μM IAP inhibitor, 24 hrs co-treatment
PANC-1 cells = experiment: Co-treatment with gemcitabine, PANC-1 pancreatic cancer cells; type: cell-based, human; settings: GEM-resistant, 15 μM IAP inhibitor, 24 hrs co-treatment
BIR2 domain of XIAP = BIR2 domain of XIAP (Homo sapiens, UniProt P98170); experiment: DELFIA assay, BIR2 domain of XIAP; type: binding; settings: supplementary Table S1
L363 cells = experiment: MTS assay, multiple myeloma cell line L363; type: cell-based, human; settings: LCL161-sensitive MM cell line, 48 hr, 20 μM
H929 cells = experiment: MTS assay, multiple myeloma cell line H929; type: cell-based, human; settings: LCL161-sensitive MM cell line, 48 hr, 20 μM
MOLT-4 cells [1] = settings: cited from earlier work
MOLT-4 cells [2] = experiment: Cell viability of MOLT-4 cells; type: cell-based, human; settings: MOLT-4, 48 hrs

Chain of BIR2 domain of XIAP (P98170 152-236 limits assumed): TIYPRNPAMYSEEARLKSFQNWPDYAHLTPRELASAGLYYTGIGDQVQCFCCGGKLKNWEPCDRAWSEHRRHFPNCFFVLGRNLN

Compound	Effect in combination with gemcitabine, MIA PaCa-2 (MIA PaCa-2 cells)	Effect in combination with gemcitabine, BxPC3 (BxPC3 cells)	Effect in combination with gemcitabine, PANC-1 (PANC-1 cells)	Affinity for the BIR2 domain of XIAP (BIR2 domain of XIAP)	Growth inhibition L363 (L363 cells)	Growth inhibition H929 (H929 cells)	Sensitivity of MOLT-4 cell line (MOLT-4 cells [1])	Activity in cell viability assay (MOLT-4 cells [2])
CN[C@@H](C)C(=O)N[C@@H](Cc1cc(C)c(C(F)(F)F)cc1F)C(=O)N1CCC[C@H]1C(=O)N[C@@H]1CCc2c(F)cccc21 [Compound 31]	modest significant additive effect	significantly restore growth inhibition by gemcitabine; also recorded: significant synergism	significantly restore growth inhibition by gemcitabine; also recorded: significant synergism					
CN[C@@H](C)C(=O)N[C@H](C(=O)N1CCC[C@H]1c1nc(C(=O)c2ccc(F)cc2)cs1)C1CCCCC1 [LCL161]		significantly restore growth inhibition by gemcitabine	significantly restore growth inhibition by gemcitabine	only modest affinity	particularly active	particularly active	insensitive	not particularly active; also recorded: less potent than both compound 34 and compound 31
